Measured values from US7335756B2, “Retinoic acid metabolizing cytochrome P450” (Cytochroma Inc., priority 2001, dated 2008).

Legend:
P450RAI-3 [1] = molecular target: T1, P450RAI-3 (Homo sapiens, UniProt Q6V0L0, F447L); experiment: [3H]-RA-metabolism inhibition (substrate competition) in P450RAI-3 stable transfected Hela cells; assay type: cell-based; set-up: expressed in transfected cells; conditions: 2 nM [3H]-RA, read-out: ID50, competition for P450RAI-3 [3H]-RA metabolism
T1 sequence (Q6V0L0 1-522 F447L): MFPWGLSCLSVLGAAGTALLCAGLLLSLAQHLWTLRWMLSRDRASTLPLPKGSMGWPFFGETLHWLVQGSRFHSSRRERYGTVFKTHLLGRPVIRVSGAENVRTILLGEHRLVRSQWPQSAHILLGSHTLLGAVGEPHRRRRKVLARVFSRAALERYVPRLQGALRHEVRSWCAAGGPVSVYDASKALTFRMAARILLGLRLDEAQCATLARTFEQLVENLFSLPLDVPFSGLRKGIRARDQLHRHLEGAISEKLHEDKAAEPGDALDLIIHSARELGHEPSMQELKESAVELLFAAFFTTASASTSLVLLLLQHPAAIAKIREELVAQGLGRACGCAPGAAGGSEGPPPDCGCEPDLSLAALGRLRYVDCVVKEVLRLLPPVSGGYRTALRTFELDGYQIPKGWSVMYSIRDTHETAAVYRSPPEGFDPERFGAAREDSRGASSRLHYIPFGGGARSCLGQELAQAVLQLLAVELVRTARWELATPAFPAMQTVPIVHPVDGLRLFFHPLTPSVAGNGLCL
Procedure: (§1) The purpose of these experiments is to determine the specific substrates for P450RAI-3. […] The RA metabolism reaction was started by the addition of 50 ul of [^3H]-RA solution (20000 cpm, 2 nM final concentration). Cells were incubated for 3 hours in a humidified CO2 incubator at 37 degrees Celsius. The reaction was stopped by the addition of 5 ul of 10% acetic acid. Organic and aqueous soluble radio-labelled metabolites were extracted using the Bligh-Dyer procedure.

P450RAI-3 [2] = molecular target: T1, P450RAI-3; experiment: RA-metabolism cell based assay in P450RAI-3-infected Sf9 cells; set-up: expressed in transfected cells; conditions: 2 nM [3H]-RA
Procedure: Recombinant baculovirus expressing either P450RAI-3 or CYP26B (Bac-P450RAI-3 or Bac-CYP26B or CYP26B) was prepared and titrated by end-point dilution and infection of Sf9 cells in 96-well format. Baculovirus expressing vector was co-transfected into Sf9-insect cells. Infected cells were assessed for RA-metabolism after 72 hours post transfection using RA-metabolism cell based assay as follows: the RA-metabolism reaction was started by adding 50 μl of [^3H]-RA solution (20000 cpm, 2 nM final concentration) using an automatic repeating-pipette.
Cells were incubated for 3 hours. The reaction was stopped by adding 5 μl of 10% acetic acid. Organic and aqueous soluble radio-labelled metabolites were extracted using the Bligh-Dyer procedure.

P450RAI-3 [3] = molecular target: T1, P450RAI-3; experiment: ATRA and 9-cis-RA binding assay, Sf9-Bac-P450RAI-3 insect microsomes; conditions: Kd, substrate binding to P450RAI-3, insect microsomes; Table 4 prints no unit, nM
P450RAI-3 [4] = molecular target: T1, P450RAI-3; experiment: [3H]-RA-metabolism inhibition, transient Cos-P450RAI-3 cell-based assay; set-up: expressed in transfected cells; host or cells: COS-1 (transient, pcDNA-P450RAI-3, Fugene); conditions: at lower concentrations
Procedure: as §1

P450RAI-3 [5] = molecular target: T1, P450RAI-3; experiment: ATRA / 9-cis-RA metabolism in pcDNA-P450RAI-3 transfected Cos-1 cells (Bligh-Dyer, HPLC); assay type: cell-based; set-up: expressed in transfected cells; host or cells: COS-1 (transient, pcDNA-P450RAI-3, Fugene); conditions: 2 nM radio-labeled substrate, 3 hours
Procedure: Mammalian Cos-1 cells were transfected with either pcDNA-P450RAI-3 or pcDNA-control vector using Fugene™ (Roche diagnostic) according to the manufacturers directions. After 48 hours post-tranfection, cells were washed with PBS and assessed for ATRA-metabolism activity as described Briefly, transfected cells were incubated with radio-labeled ^3[H]-ATRA (18000 cpm, 2 nM) for 3 hours. Organic and Water-soluble metabolites were extracted using Bligh-Dyer procedure and radioactivity counted (FIG. 10).
HPLC analysis of the organic metabolites: the Bligh-Dyer organic button-layer was dried out and residues were suspended in HPLC solvent and then analyzed by HPLC as described in [White et al, PNAS, vol 97, pg 6403-6408], FIG. 11.
Mammalian Cos-1 cells were transfected with either pcDNA-P450RAI-3 or pcDNA-control vector according to the manufacturers directions using Fugene (Roche). After 48 hours post-tranfection, cells were washed with PBS and assessed for 9-cis-RA-metabolism activity as described using Bligh-Dyer procedure. Briefly, transfected cells were incubated with radio-labeled ^3[H]-9-cis-RA (38000 cpm, 2 nM) for 3 hours. Organic and Water-soluble metabolites were extracted using Bligh-Dyer procedure and radioactivity counted, FIG. 19.

SMILES: CC1=C(/C=C/C(C)=C/C=C/C(C)=C/C(=O)O)C(C)(C)CCC1 [ATRA, all-trans-retinoic-acid]
- IC50 (P450RAI-3 [1]): 300 nM
- metabolism by P450RAI-3-infected Sf9-cells (P450RAI-3 [2]): metabolized ATRA and converted it to water-soluble metabolites
- Kd (P450RAI-3 [3]): 45 nM
- competition / inhibition of P450RAI-3 (P450RAI-3 [4]): competed
- metabolism by P450RAI-3 (P450RAI-3 [5]): efficiently metabolize ATRA to polar metabolites
